{"source": "paper PMC7352342", "about": "“Inhibition of Patched Drug Efflux Increases Vemurafenib Effectiveness against Resistant Braf^V600E Melanoma” (Cancers, 2020)", "key": {"MeWo-DxrR cells": {"tested_on": "MeWo-DxrR cells", "experiment": "Cytotoxicity assay (neutral red), MeWo cells rendered resistant to dxr", "format": "cell-based", "conditions": "Homo sapiens, Dxr + DMSO", "description": "(§1) Human melanoma cell lines A375 and MeWo were purchased from ATCC, and cultured in DMEM medium supplemented with 10% fetal bovine serum and penicillin/streptomycin (Invitrogen) at 37 °C in a 5% CO2/95% water-saturated air atmosphere. Melanoma cell lines SKMEL 28, SKMEL V3, WM9S, and WM9R were provided by Robert Ballotti (C3M, Nice, France). MeWo-dxrR cells were obtained by adding increasing concentrations of doxorubicin, up to 0.2 µM, in the culture medium over 6 months. These cells were grown in medium supplemented with 0.2 µM dxr. WM9R cells were obtained by adding increasing concentrations of vemurafenib, up to 5 µM, in the culture medium over 6 months. These cells were grown in medium supplemented with 5 µM vemurafenib. HEK cells were grown in 75 mm tissue culture dishes (Falcon, Franklin Lakes, NJ, USA) in Dulbecco’s modified Eagle’s medium (Gibco, Life Technologies, Saint Aubin, France) supplemented with 10% fetal calf serum (Hyclone, Thermo Fisher Scientific GMBH, Ulm, Germany) and 1% penicillin/streptomycin (Gibco, Life Technologies, Saint Aubin, France) in a humidified incubator at 37 °C (5% CO2).\nCells were seeded in 96-well plates in triplicate and grown in medium to achieve 70 to 80% confluence. […] Measurements were made in microplate readers (Multiskan Go Microplate Spectrophotometer from Thermo Scientific)."}, "MeWo cells [1]": {"tested_on": "MeWo cells", "experiment": "Melanoma cells grafted on the chorioallantoic membrane (CAM) of chick eggs", "format": "in vivo", "conditions": "MeWo tumors on CAM; sPAH 500 µM and/or Dxr 20 µM, 100 µL every two days, 10 days", "description": "These experiments were performed by the company INOVOTION (La Tronche, France). Fertilized White Leghorn eggs were randomized in 4 groups 9 days after inoculation of 3.10^6 MeWo cells onto the CAM of each egg. At day 10 (E10), tumors began to be detectable and they were treated by adding 100 µL of vehicle (1.2% DMSO in PBS), doxorubicin, and sPAH alone or with doxorubicin. Eggs were treated every two days (E10, E12, E14, E16, E18) for 10 days in the same way. At day 19 (E19), the upper portion of the CAM was removed, washed in PBS, and directly transferred in PFA for 48 h, and the tumors were then carefully cut away from normal CAM tissue."}, "MeWo cells [2]": {"tested_on": "MeWo cells", "experiment": "Cytotoxicity assay (neutral red), MeWo cells", "format": "cell-based, human", "conditions": "for IC50: Homo sapiens; for Dxr-IC50 in the presence of 20 µM compound: MeWo (Figure 3B), same series also tested on A375 (Figure S1); for Dxr-IC50 in the presence of 20 µM compound / effect on dxr cytotoxicity: compound at 20 µM; for effect on dxr cytotoxicity: melanoma cells MeWo (Figure 3B) and A375 (Figure S1), compared to PAH", "description": "as §1\n(§2) Cells were seeded in 96-well plates in triplicate and grown in medium to achieve 70 to 80% confluence. Medium was then removed and replaced with 100 µL/well of complete medium containing PAH or DMSO as a control. After 2 h, 100 µL of complete medium containing serial dilutions of dxr, cisplatin or vemurafenib were added. Plates were incubated at 37 °C and 5% CO2. After 24 or 48 h, cells were incubated for 3 h at 37 °C with 100 µL/well neutral red (NR) solution (50 µg/mL in medium) following the manufacturer’s protocol. Measurements were made in microplate readers (Multiskan Go Microplate Spectrophotometer from Thermo Scientific)."}, "A375 cells [3]": {"tested_on": "A375 cells", "experiment": "Cytotoxicity assay (neutral red), A375 cells", "format": "cell-based, human", "conditions": "for IC50: Homo sapiens", "description": "as §1, §2"}, "A375 cells [4]": {"tested_on": "A375 cells", "experiment": "Competition on dxr loading, A375 cells", "format": "cell-based, human", "conditions": "10 µM dxr, 100 µM vemurafenib, 1 h", "description": "(§3) Dxr efflux measurements were carried out as previously described. Cells were seeded on coverslips in 24-well plates and allowed to grow to 80% confluence. Coverslips were incubated at 37 °C and 5% CO2 with 10 μM dxr in physiological buffer (140 mM NaCl, 5 mM KCl, 1 mM CaCl2, 1 mM MgSO4, 5 mM glucose, 20 mM HEPES, pH 7.4). After 2 h, three coverslips were immediately fixed with 4% PFA for the dxr loading control, rapidly washed with PBS and mounted in SlowFade Gold antifade reagent with DAPI (Invitrogen). The other coverslips (triplicated per condition) were incubated with physiological buffer supplemented with DMSO or 10 µM of PAH under gentle shaking at room temperature and protected from light. After 30 min, coverslips were fixed with 4% PFA, washed, and mounted as described above. For competition on dxr loading, A375 and WM9R cells seeded on coverslips were incubated for 1 h at 37 °C and 5% CO2 with 10 μM dxr in physiological buffer in the presence or the absence of 100 µM vemurafenib. Images were acquired with a Zeiss Axioplan 2 fluorescence microscope coupled to a digital charge-coupled device camera using a 40×/1.3 Plan NeoFluar objective and filters for Alexa 594. Dxr fluorescence was quantified using ImageJ software. Sampling of cells was performed randomly. About 100 cells (from three wells) were scored per condition per experiment."}, "[5]": {"tested_on": "A375 BRAF^V600E melanoma cells", "experiment": "Melanoma xenograft study in mice", "format": "in vivo", "conditions": "Figure S6", "experimental": "Forty-eight male athymic Nu/NU NMRI mice (4–5 weeks) were purchased from Charles River and housed under pathogen-free conditions. A 200 µL aliquot of 3 Millions A375 BRAF^V600E melanoma cells were injected subcutaneously per mouse. […] Animals were monitored daily for symptoms of disease (weight loss >20%, ruffled coat, hunched back, weakness, reduced motility) and tumor sizes were measured every 3 to 4 days. […]\nA part of each tumor was cut in 8 µm thick tissue sections using a microtome-cryostat for quantification of the number of apoptotic tumor cells and of proliferative cells performed using the colorimetric DeadEND TUNEL System (Promega, Mannheim, Germany) and immunofluorescence analysis of Ki67 (BD pharmigen 556003), respectively. OCT was removed from the remainder of each tumor, and tumors were crushed in 50 mM Tris-HCl pH 6.8, 10% glycerol, and 2% SDS), heated at 95 °C, and sonicated for Western blot analyses as well as vemurafenib and cholesterol quantification. Protein concentration in each homogenate was evaluated using a Bio-Rad protein assay based on the Bradford dye-binding method."}, "WM9R cells": {"tested_on": "WM9R cells", "experiment": "Competition on dxr loading, WM9R cells", "format": "cell-based", "conditions": "10 µM dxr, 100 µM vemurafenib, 1 h", "description": "as §3"}}, "note": "Structures can show the parent of a compound that is named as a salt. Where two headings read alike, the source gives them in different places."}
{"smiles": "COc1cccc2c1C(=O)c1c(O)c3c(c(O)c1C2=O)C[C@@](O)(C(=O)CO)C[C@@H]3O[C@H]1C[C@H](N)[C@H](O)[C@H](C)O1", "note": "[Dxr, Doxorubicin hydrochloride, reference compound]", "values": [{"measurement": "IC50", "setting": "MeWo-DxrR cells", "result": "247 ± 49", "unit": "µM"}, {"measurement": "Tumor regression (%) (tumor weight with respect to control)", "setting": "MeWo cells [1]", "result": 28, "unit": "%"}, {"measurement": "IC50", "setting": "MeWo cells [2]; MeWo, Dxr + DMSO, 24 or 48 h, read-out: Dxr IC50", "result": "142 ± 2.2", "unit": "µM"}, {"measurement": "IC50", "setting": "A375 cells [3]; A-375, A375, Dxr + DMSO, 24 or 48 h, read-out: Dxr IC50", "result": "41 ± 8.2", "unit": "µM"}]}
{"smiles": "COc1cc(C)c(CCC(C)CCC2=CC(=O)C=CC2=O)c(C)c1C", "note": "(centres unmarked) [Compound 12]", "values": [{"measurement": "Dxr-IC50 in the presence of 20 µM compound", "setting": "MeWo cells [2]", "result": "could not be determined, owing to greater than 50% viability"}]}
{"smiles": "COc1ccc(O)c(CCC(C)CCc2c(C)cc(OC)c(C)c2C)c1", "note": "(centres unmarked) [Compound 11]", "values": [{"measurement": "Dxr-IC50 in the presence of 20 µM compound", "setting": "MeWo cells [2]", "result": "could not be determined, owing to greater than 50% viability"}]}
{"smiles": "CCCS(=O)(=O)Nc1ccc(F)c(C(=O)c2c[nH]c3ncc(-c4ccc(Cl)cc4)cc23)c1F", "note": "[vemurafenib]", "values": [{"measurement": "amount of dxr in cells in the presence of vemurafenib", "setting": "A375 cells [4]", "result": "significantly increased"}, {"measurement": "ERK phosphorylation in tumor extracts (pERK/ERK, Western blot)", "setting": "[5]", "result": "reduced ERK phosphorylation"}, {"measurement": "amount of dxr in cells in the presence of vemurafenib", "setting": "WM9R cells", "result": "significantly increased"}]}
{"smiles": "COc1ccc(O)c(CC=C(C)CCc2c(C)cc(OC)c(C)c2C)c1", "note": "[Compound 8]", "values": [{"measurement": "Dxr-IC50 in the presence of 20 µM compound", "setting": "MeWo cells [2]", "result": "could not be determined, owing to greater than 50% viability"}, {"measurement": "effect on dxr cytotoxicity", "setting": "MeWo cells [2]", "result": "had no effect on dxr cytotoxicity"}]}
{"smiles": "COc1cc(C)c(CCC(C)=CCC2=CC(=O)C=CC2=O)c(C)c1C", "note": "[Compound 9, Panicein A]", "values": [{"measurement": "Dxr-IC50 in the presence of 20 µM compound", "setting": "MeWo cells [2]", "result": "could not be determined, owing to greater than 50% viability"}, {"measurement": "effect on dxr cytotoxicity", "setting": "MeWo cells [2]", "result": "very weakly increased the cytotoxicity of dxr"}]}
{"smiles": "COc1cc(C)c(CC/C(C)=C/Cc2cc(O)ccc2O)c(C)c1C", "note": "[Natural PAH, panicein A hydroquinone]", "values": [{"measurement": "IC50", "setting": "MeWo cells [2]; MeWo, MeWo cells, 2 µM Dxr present, read-out: IC50 of PAH at 2 µM Dxr", "result": "6.6 ± 0.8", "unit": "µM"}, {"measurement": "IC50", "setting": "A375 cells [3]; A-375, A375 cells, 2 µM Dxr present, read-out: IC50 of PAH at 2 µM Dxr", "result": "12.4 ± 4.9", "unit": "µM"}]}
{"smiles": "COc1cc(C)c(CCC(C)CCc2cc(O)ccc2O)c(C)c1C", "note": "(centres unmarked) [Compound 13]", "values": [{"measurement": "Dxr IC50 in the presence of compound relative to that in the presence of PAH", "setting": "MeWo cells [2]; MeWo, 20 µM compound", "result": "approximately 4 fold"}, {"measurement": "Dxr IC50 in the presence of compound relative to that in the presence of PAH", "setting": "A375 cells [3]; A375, 20 µM compound", "result": "comparable to that of PAH"}]}
